A word on the IC50: it is the concentration that gives 50% inhibition. As a reminder, the EC50 is the concentration at which the effect is half-maximal. A higher EC50 goes with a need for much substance. By half-life is commonly meant the time in which the quantity being followed falls by half. As usually defined, the bioavailability is the share of a dose that reaches the circulation, judged against a reference dose that is usually intravenous. Read a low bioavailability as poor availability. A word on the Cmax: it is the peak of the concentration-time curve. In general, Tmax refers to the time at which the peak concentration occurs. Broadly, the AUC(0-t) is the area under the concentration-time curve up to a stated or last time point. A high value points to high exposure. Usually clearance stands for a measure of how efficiently the substance is removed, as volume per time. Low readings indicate inefficient removal, high ones efficient removal.

The values that follow come from ChEMBL document CHEMBL5518188, “Discovery of 4-amino-1,6-dihydro-7H-pyrrolo[2,3-d]pyridazin-7-one derivatives as potential receptor-interacting serine/threonine-protein kinase 1 (RIPK1) inhibitors” (Eur J Med Chem, 2024).

SMILES strings stand for the structures. Active and inactive are the calls of the source. No cut-off for these calls is given here.

In data set [1] the target is T1, Receptor-interacting serine/threonine-protein kinase 1 (Homo sapiens, UniProt Q13546).
T1 sequence (Q13546 whole entry): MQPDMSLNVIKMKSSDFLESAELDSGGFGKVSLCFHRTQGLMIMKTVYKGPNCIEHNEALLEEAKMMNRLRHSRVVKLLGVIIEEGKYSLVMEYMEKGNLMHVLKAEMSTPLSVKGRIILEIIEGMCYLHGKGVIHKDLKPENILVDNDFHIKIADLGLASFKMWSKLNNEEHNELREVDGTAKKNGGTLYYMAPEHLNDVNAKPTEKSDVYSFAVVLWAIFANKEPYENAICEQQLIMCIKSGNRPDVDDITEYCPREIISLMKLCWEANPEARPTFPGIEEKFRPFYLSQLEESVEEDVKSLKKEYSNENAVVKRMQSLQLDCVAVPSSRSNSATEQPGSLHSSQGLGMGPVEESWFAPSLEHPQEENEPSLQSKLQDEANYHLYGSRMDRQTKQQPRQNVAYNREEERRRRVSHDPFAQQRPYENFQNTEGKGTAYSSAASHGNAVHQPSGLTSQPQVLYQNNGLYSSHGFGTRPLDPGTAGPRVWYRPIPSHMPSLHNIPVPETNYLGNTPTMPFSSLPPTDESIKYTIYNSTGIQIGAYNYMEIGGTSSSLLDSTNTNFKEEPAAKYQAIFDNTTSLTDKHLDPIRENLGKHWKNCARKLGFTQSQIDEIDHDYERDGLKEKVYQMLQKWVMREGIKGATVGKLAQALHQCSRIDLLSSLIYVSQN
Briefly: Inhibition of RIPK1 (unknown origin) in presence of ATP by kinaseProfiler assay.

A further data set deals with HT-29. The data set is described as follows: Anti-necroptosis activity against TSZ-induced human HT-29 cells. In kind it is functional, cell-based.
The test system of a further data set is U-937. The data set is described as follows: Anti-necroptosis activity against TSZ-induced human U-937 cells. In kind it is functional, cell-based.
In a further data set the test system is L929. Briefly: Anti-necroptosis activity against TSZ-induced mouse L929 cells. In kind it is functional, cell-based.
The nature of data set [2]: Metabolic stability in cryopreserved human liver microsome assessed as half life. In kind it is ADME. Particulars: cryopreserved liver microsomes.
For the next data set, the system named is Mus musculus. Briefly: In vivo anti-necrotptic activity in SIRS mouse model assessed as protection from body temperature loss at 10 mg/kg, po measured upto 6 hrs. In kind it is functional, organism-based.
A short description of data set [3]: Oral bioavailability in BALB/c mouse at 10 mg/kg. In kind it is ADME, organism-based. Conditions: in vivo; for bioavailability: BALB/c.
Data set [4] in a line: Cmax in BALB/c mouse at 5 mg/kg, iv. Conditions: in vivo. In kind it is ADME, organism-based.
The nature of data set [5]: Cmax in BALB/c mouse at 10 mg/kg, po. In kind it is ADME, organism-based. Conditions: in vivo.
Data set [6] is described as follows: Tmax in BALB/c mouse at 5 mg/kg, iv. In kind it is ADME, organism-based. Conditions: in vivo.
A short description of data set [7]: Tmax in BALB/c mouse at 10 mg/kg, po. In kind it is ADME, organism-based. Particulars: in vivo.
The nature of data set [8]: Half life in BALB/c mouse at 5 mg/kg, iv. In kind it is ADME, organism-based. Conditions: in vivo.
A short description of data set [9]: Half life in BALB/c mouse at 10 mg/kg, po. In kind it is ADME, organism-based. Conditions: in vivo.
Data set [10] is described as follows: AUC (0 to t) in BALB/c mouse at 5 mg/kg, iv. In kind it is ADME, organism-based. Particulars: in vivo.
Data set [11] can be described thus: AUC (0 to t) in BALB/c mouse at 10 mg/kg, po. In kind it is ADME, organism-based. Conditions: in vivo, po, 10 mg/kg.
A short description of data set [12]: Apparent volume of distribution in BALB/c mouse at 10 mg/kg, po. In kind it is ADME, organism-based. Particulars: in vivo.
Data set [13] in a line: Clearance in BALB/c mouse at 10 mg/kg, po. In kind it is ADME, organism-based. Conditions: in vivo, po, 10 mg/kg.
The nature of data set [14]: Cmax in BALB/c mouse at 10 mg/kg, iv. In kind it is ADME, organism-based. Conditions: in vivo.
A short description of data set [15]: Tmax in BALB/c mouse at 10 mg/kg, iv. In kind it is ADME, organism-based. Conditions: in vivo.
The nature of data set [16]: Half life in BALB/c mouse at 10 mg/kg, iv. In kind it is ADME, organism-based. Conditions: in vivo.
Data set [17] can be described thus: Clearance in BALB/c mouse at 10 mg/kg, iv. In kind it is ADME, organism-based. Particulars: in vivo.
Data set [18] is described as follows: AUC (0 to t) in BALB/c mouse at 10 mg/kg, iv. In kind it is ADME, organism-based. Particulars: in vivo, iv, 10 mg/kg.
Data set [19] in a line: Apparent volume of distribution in BALB/c mouse at 10 mg/kg, iv. In kind it is ADME, organism-based. Particulars: in vivo, read-out: Vz.

`CC(C)n1nc(-c2ccc3c(c2)CCN3C(=O)Cc2cccc(OC(F)(F)F)c2)c2c(N)n[nH]c(=O)c21`: the IC50 in data set [1] was 66.1 nM. Also, the concentration giving a half-maximal response (EC50) in the data set on HT-29 is 7.73 nM; in the data set with U-937 it was 17.3 nM; with L929, 1.47 nM. For the same molecule, the half-life in data set [2] amounted to 26.8 min.
Regarding `CN1C(=O)[C@@H](NC(=O)c2n[nH]c(Cc3ccccc3)n2)COc2ccccc21` [GSK2982772], the results for the 50% effective concentration (EC50) in the data set on HT-29, in the data set on U-937 and in the data set with L929 were 2.78 nM, 1.27 nM and 1260 nM, respectively. Further, the result in the data set with Mus musculus was Active.
Regarding `CCC1(Cn2nc(-c3ccc4c(c3)CCN4C(=O)Cc3cccc(OC(F)(F)F)c3)c3c(N)n[nH]c(=O)c32)COC1`, in data set [1], the IC50 was 81.6 nM. In addition, the EC50 with HT-29 is 18.4 nM; with U-937 it was 4.64 nM; with L929, 6.67 nM. In addition, the half-life in [2] came to 16.5 min.
With `CC(C)Cn1nc(-c2ccc3c(c2)CCN3C(=O)Cc2cccc(OC(F)(F)F)c2)c2c(N)n[nH]c(=O)c21`, in data set [1], the half-maximal inhibitory concentration (IC50) was found to be 133 nM. The EC50 in the data set with HT-29 is 6.19 nM; with U-937, 9.75 nM; in the data set on L929, 1.36 nM. Also, the half-life in [2] turned out to be 18.1 min.
With `CCn1nc(-c2ccc3c(c2)CCN3C(=O)Cc2cccc(OC(F)(F)F)c2)c2c(N)n[nH]c(=O)c21`, the IC50 in data set [1] was 42.7 nM. The EC50 was determined as 16.1 nM in the data set on HT-29, 4.45 nM in the data set with U-937 and 9.79 nM in the data set on L929. Further, the half-life in data set [2] is above 120 min. For the same molecule, the bioavailability in [3] amounted to 4.36%.
For the molecule `Nc1n[nH]c(=O)c2c1c(-c1ccc3c(c1)CCN3C(=O)Cc1cccc(OC(F)(F)F)c1)nn2CC1CC1`, the IC50 in data set [1] amounted to 110 nM. For the same molecule, the EC50 in the data set on HT-29 was 2.61 nM; in the data set with U-937, 3.89 nM; in the data set with L929 it was 0.48 nM. Besides, the figures for the half-life in data set [2], in [8] and in data set [9] (BALB/c) were 48.8 min, 702 min and 155 min, respectively. The molecule further registered a bioavailability in data set [3] of 44.1%. Besides, the maximum concentration (Cmax) in data set [4] was 3290 ng/mL; in data set [5], 1090 ng/mL. Moreover, the Tmax in data set [6] was 8.4 min; in data set [7], 60 min. Also, in data set [10], the AUC(0-t) came to 6930 ng·h/mL. In data set [11], this molecule gave an AUCt of 6121.97 ng·h/mL. In addition, the Vz in [12] turned out to be 6007.49 L/kg.
For `Nc1n[nH]c(=O)c2c1c(-c1ccc3c(c1)CCN3C(=O)Cc1cccc(OC(F)(F)F)c1)nn2CCC1CNC1`, the IC50 in data set [1] is above 1000 nM. Further, the results for the EC50 with HT-29, in the data set on U-937 and with L929 were above 1000 nM, above 1000 nM and 366 nM, respectively. Besides, the half-life in data set [2] was found to be 100 min.
In the case of `CCCCn1nc(-c2ccc3c(c2)CCN3C(=O)Cc2cccc(OC(F)(F)F)c2)c2c(N)n[nH]c(=O)c21`, the IC50 in [1] was 105 nM. The 50% effective concentration (EC50) amounted to 8.23 nM with HT-29, 15.5 nM with U-937 and 1.2 nM in the data set on L929. Further, the half-life in [2] was determined as 18.3 min.
Taken in the same sequence, the figures for `Nc1n[nH]c(=O)c2c1c(-c1ccc3c(c1)CCN3C(=O)Cc1cccc(OC(F)(F)F)c1)nn2Cc1ccccc1` were 149 nM, 108 nM, 117 nM, 14.3 nM and 28.2 min.
Taken in the same sequence, the figures for `CC(C)Cn1cc(-c2ccc3c(c2)CCN3C(=O)Cc2cccc(OC(F)(F)F)c2)c2c(N)n[nH]c(=O)c21` were 44.7 nM, 1.61 nM, 1.84 nM, 8.8 nM and 19.6 min.
For `CC(C)=CCn1nc(-c2ccc3c(c2)CCN3C(=O)Cc2cccc(OC(F)(F)F)c2)c2c(N)n[nH]c(=O)c21`, the 50% inhibitory concentration (IC50) in [1] worked out at 64.3 nM. For the same molecule, the values for the EC50 with HT-29, with U-937 and in the data set with L929 were 11.3 nM, 22.7 nM and 1.38 nM, respectively. Also, the half-life in data set [2] was 26.6 min.
As for `Nc1n[nH]c(=O)c2c1c(-c1ccc3c(c1)CCN3C(=O)Cc1cccc(OC(F)(F)F)c1)cn2CC1CC1`, the IC50 in data set [1] amounted to 109 nM. Also, the results for the EC50 in the data set with HT-29, in the data set on U-937 and in the data set on L929 were 5.78 nM, 3.68 nM and 1.62 nM, respectively. Besides, the half-life in [2] is above 120 min.
Taken in the same sequence, the figures for `CC1(Cn2nc(-c3ccc4c(c3)CCN4C(=O)Cc3cccc(OC(F)(F)F)c3)c3c(N)n[nH]c(=O)c32)CC1` were 98.7 nM, 37.5 nM, 10.2 nM, 13.2 nM and 26.4 min.
Turning to `COCCn1nc(-c2ccc3c(c2)CCN3C(=O)Cc2cccc(OC(F)(F)F)c2)c2c(N)n[nH]c(=O)c21`, the IC50 in [1] was 80.5 nM. Also, the values for the EC50 in the data set with HT-29, with U-937 and in the data set with L929 were 4.45 nM, 8.29 nM and 1.08 nM, respectively. The half-life in data set [2] stood at 17.8 min.
Take `Nc1n[nH]c(=O)c2c1c(-c1ccc3c(c1)CCN3C(=O)Cc1cccc(C(F)(F)F)c1)cn2CC1CC1`: the IC50 in [1] came to 125 nM. The EC50 in the data set on HT-29 stood at 6.01 nM; in the data set with U-937, 1.88 nM; in the data set on L929 it was 1.17 nM. Further, the half-life in data set [2] was 119 min; in data set [16] it was 1260 min. Further, the F in data set [3] (po, 10 mg/kg) came out at 22.49%. In addition, the Cmax in data set [5] and in data set [14] was 45.5 ng/mL each time. Further, the Tmax in data set [7] turned out to be 8.4 min; in data set [15] it was 120 min. In data set [9] (po, 10 mg/kg), this molecule had a t1/2 of 1259 min. In data set [13], the CL was determined as 48.7 mL/min/kg. The AUCt in [11] and in data set [18] was 2048.56 ng·h/mL in each case. The Vz in data set [12] was 2.8 L/kg. The same molecule had a clearance in data set [17] of 48.7 mL/min/kg. Besides, in data set [19], the Vd is 91 L/kg.
Regarding `Nc1n[nH]c(=O)c2c1c(-c1ccc3c(c1)CCN3C(=O)Cc1cccc(OC(F)(F)F)c1)nn2CC(F)F`, in data set [1], the IC50 was 84.5 nM. Further, the EC50 in the data set on HT-29 amounted to 16 nM; in the data set on U-937 it was 14.6 nM; with L929, 9.84 nM. For the same molecule, the half-life in [2] stood at 31.9 min.
On to `CCCn1nc(-c2ccc3c(c2)CCN3C(=O)Cc2cccc(OC(F)(F)F)c2)c2c(N)n[nH]c(=O)c21`, for which the IC50 in [1] stood at 120 nM. Besides, the figures for the EC50 with HT-29, with U-937 and in the data set with L929 were 6.84 nM, 0.46 nM and 1.42 nM, respectively. For the same molecule, the half-life in data set [2] worked out at 21.1 min.
